# From patent publication US20160324992A1, “IDENTIFICATION AND TREATMENT OF VULNERABLE PLAQUES” (OTTAWA HEART INSTITUTE RESEARCH CORPORATION, priority 2015, published 2016)
# Like-named read-outs stand apart in the source and are kept apart here. Residues, ends and D or L forms follow the SMILES beside them. *: point of attachment. Cbz = O=C(OCc1ccccc1)*; CH2F = FC*
# How the values were obtained:
# [1] = system: FADD-deficient variant of human Jurkat T cells treated with TNF-α; conditions: SAR study of Teng et al. 2005, relative to Nec-1; cited from earlier work
# [2] = system: atherosclerotic lesions in ApoE−/− mice; test: Ex vivo autoradiography of aorta, en face and Oil Red O comparison; type: in vivo, mouse; conditions: ApoE−/− mice, ˜1 mCi of tracer, 2 hr post injection
# From the text: Radiochemistry and ex vivo autoradiography study with ApoE^−/− mice. The tracer ^123I-Nec-1 (7-^123I-Nec-1) was synthesized by a Cu(I) catalyzed direct halogen exchange reaction with the precursor 7-Br-Nec-1 and Na^123I. Eight week-old female apolipoprotein E knockout (Apo E^−/−) mice were purchased from Charles River Laboratories and fed either a chow or western diet (TD.10885, Harlan Laboratories) for 2 months (total n=6 mice). 7-^123I-O-Nec-1 (37.0-55.5 MBq) was administrated intravenously into the mice under anesthetic. After 2 hr, the mice were euthanized and perfused with PBS followed by 10% formalin via left ventricle cannulation. Aorta was dissected from heart at the base using a dissecting microscope following removal of surrounding fat and connective tissue. En face specimens were immediately exposed to super resolution phosphor screens in an autoradiography cassette. After overnight exposure at room temperature, the screens were scanned with a Cyclone Phosphor Imager (Perkin Elmer, Downers Grove, Ill.). Images were analyzed using OptiQuant™ 5.0 software. The regions of interest (ROI) were drawn around the lesions on the aortic arch, and the counts in Digital Light Unit (DLU) and surface areas in mm^2 were measured. The DLU was converted to activity in μCi using a set of calibration standards with known activities, which were exposed and scanned on the same screen used for the aorta samples, as previously described (Zhao et al, 2007; Matter et al., 2006). The percentage injected dose (% ID) was calculated from dividing the activity (pCi) of the lesion by the injected activity. Activity density in % ID/m^2 was calculated and normalized by animal body weight to get % ID×kg/m^2. The areas of the lesions and the whole aortic arch in mm^2 were also recorded using the OptiQuant™ 5.0 software, and the percentage of lesion within the area of the aorta vessel wall was calculated.
# Ex vivo autoradiography study with ApoE^−/− mice. Eight week-old female apolipoprotein E knockout (Apo E^−/−) mice were purchased from Charles River Laboratories (Charles River, Canada) and fed either a chow or western diet (TD.10885, Harlan Laboratories) for 2 months (n=3 per group). […] 7-^123I-O-Nec-1 (37.0-55.5 MBq) was administrated intravenously into the mice under anesthetic. After 2 hr, the mice were euthanized in a CO2 chamber. Using a Gilson Minipuls 2 peristaltic pump, the mice were perfused with 20 mL phosphate buffered saline (PBS) followed by 10 mL of 10% formalin via left ventricle cannulation. Perfusate was drained from a cut within the right atrium. Aorta was dissected from heart at the base using a dissecting microscope following removal of surrounding fat and connective tissue. For en face experiments aortic tissues were flattened by a longitudinal cut through one side of the aortic wall cutting through the carotids and the innominant artery until the aorta was split forming a Y-shaped structure.
# The uptake and distribution of the tracer on aortic tissue was studied using digital autoradiography method. En face specimens were immediately exposed to super resolution phosphor screens in a Fisher Biotech autoradiography cassette. After overnight exposure at room temperature, the screens were scanned with a Cyclone Phosphor Imager (Perkin Elmer, Downers Grove, Ill.). Images were analyzed using OptiQuant™ 5.0 software. The regions of interest (ROI) were drawn around the lesions on the aortic arch, and the counts in Digital Light Unit (DLU) and surface areas in mm^2 were measured. The DLU was converted to activity in pCi using a set of calibration standards with known activities, which were exposed and scanned on the same screen used for the aorta samples. The percentage injected dose (% ID) was calculated from dividing the activity (pCi) of the lesion by the injected activity. Activity density in % ID/m^2 was calculated and normalized by animal body weight to get % ID×kg/m^2. […]
# [3] = system: ApoE−/− mice with established atherosclerosis; test: Atherosclerosis study: time-release pellets in Western diet fed ApoE−/− mice; type: in vivo, mouse
# Method: Atherosclerosis Studies. All animal experiments were performed in accordance with the Animal Care and Use Committee, University of Ottawa, Canada. Eight week old Apo E^−/− mice (total n=17 mice) were fed an adjusted calories diet (21% fat; 0.2% cholesterol, Harlan Teklad) for 4 weeks to induce atherosclerotic progression. Mice were then injected with time-release placebo or Nec-1s tablets (2 mg/kg/day), which were synthesized by Innovative Research of America, USA. Mice were euthanized after 6 weeks of treatment, perfused with saline and aortic roots were embedded in OCT medium and frozen. Aortic roots were sectioned (10 μm) and stained with hematoxylin and eosin for lesion area and necrotic core quantification, and a minimum of 10 sections per animal were measured across the length of the entire aortic root. For en face aortic lesion quantifications, aortas were dissected removing all branching vessels down to the femoral bifurcation and then sliced ventrally and images of aortas were digitally captured using ImagePro™. Lesion areas within the entire length of the aorta were quantified using Image J™ and expressed relative to the total aortic surface area. Immunohistochemistry for vascular smooth muscle cells was performed using a primary antibody for a-smooth muscle actin (monoclonal, Sigma) conjugated to alkaline phosphatase and visualized using SigmaFAST Red (Sigma). Statistical significance between the two groups were analyzed using Students' t-test (p<0.05).
# Atherosclerosis Studies. All animal experiments were performed in accordance with the Animal Care and Use Committee, University of Ottawa, Canada. Eight week old apoE−/− mice (total n=17 mice) were fed an adjusted calories diet (21% fat; 0.2% cholesterol, Harlan Teklad) for 4 weeks to induce atherosclerotic progression. Mice were then injected with time-release placebo or stable Necrostatin-1 (Nec-1)15 tablets (2 mg/kg/day), which were synthesized by Innovative Research of America, USA. Mice were euthanized after 6 weeks of treatment, perfused with saline and aortic roots were embedded in OCT medium and frozen. Aortic roots were sectioned (10 μm) and stained with hematoxylin and eosin for lesion area and necrotic core quantification, and a minimum of 10 sections per animal were measured across the length of the entire aortic root. For en face aortic lesion quantifications, aortas were dissected removing all branching vessels down to the femoral bifurcation and then sliced ventrally and images of aortas were digitally captured using ImageProTM. Lesion areas within the entire length of the aorta were quantified using Image JTM and expressed relative to the total aortic surface area. Immunohistochemistry to visualize macrophages and smooth muscle cells was performed using primary antibodies to CD68 (rat monoclonal, Serotec) or phosho-MLKL (rabbit polyclonal, Abcam) with a secondary conjugated to biotin and α-smooth muscle actin (monoclonal, Sigma) conjugated to alkaline phosphatase and visualized using DAB or SigmaFAST Red (Sigma), respectively. Image J was used to quantify positive staining area and statistical significance between the two groups were analyzed using Students' t-test (p<0.05)
# [4] = system: bone-marrow-derived macrophages (BMDMs); type: cell-based; conditions: BMDMs
# Method: (§1) Bone-marrow derived macrophages. Bone-marrow derived macrophages (BMDMs) were isolated from femurs of adult VVT or Rip3^−/− mice and differentiated into macrophages using DMEM supplemented with 10% FBS and 1% penicillin-streptomycin plus either 20% L929 conditioned media or 20 ng/mL mouse M-CSF for 7-10 days. To polarize macrophages to M1 or M2, BMDMs were incubated on day 7 with 1 μg/mL LPS and 100 ng/mL IFNγ or 10 ng/mL IL-4 respectively for 24 h. Damage Associated Molecular Patterns (DAMPs) were obtained by subjecting BMDMs to 3×30 min freeze-thaw cycle or treatment with 100 ng/mL LPS and 50 μM zVAD.fmk for 24 hours, after which the media was collected and added to naïve cells at indicated ratios.
# (§2) Cell viability assays. Cell death was determined by measuring lactate dehydrogenase (LDH) release into the media. Briefly, cells were treated with 100 μg/ml oxLDL in the presence or absence of 25 μM zVAD.fmk or 50 μM necrostatin-1 (Nec-1) for 24 hours and media was collected and centrifuged to pellet cell debris. The amount of LDH in media was measured in a kinetic assay by adding PBS containing 0.02% NADH and 0.03% sodium pyruvate and measuring absorbance at 340 nm for 10 minutes at 1 minute intervals. The slope of the curve provides a measure of cell death, which was expressed as fold change relative to control.
# as §1, with “Rip3−/−” for “Rip3^−/−”
# as §2, with “ug/ml” for “μg/ml”, “uM” for “μM”
structure (smiles),measurement,setting,value
CN1C(=O)C(Cc2c[nH]c3c(Cl)cccc23)NC1=S (centres unmarked) [7-Cl-Nec-1],necroptosis inhibitory activity (in words),[1],increased activity
COc1ccc([C@@H]2[C@@H]3CCc4ccc([123I])cc4C3=NN2C(C)=O)cc1 [8-^123I-Nec-3R],uptake in atherosclerotic lesions by autoradiography (in words),[2],significant lesion uptake
O=C1NC(=S)NC1Cc1c[nH]c2ccccc12 (centres unmarked) [Nec-1i],necroptosis inhibitory activity (in words),[1],completely abolished
CN1C(=O)NC(Cc2c[nH]c3c(Cl)cccc23)C1=O (centres unmarked) [Nec-1s],atherosclerotic lesion area versus placebo (in words),[3]; Western diet 4 weeks then 2 mg/kg/day for 6 weeks,reduced en face lesion areas
same,reduction of lesion necrotic core area compared to placebo,"[3]; aortic sinus, 2 mg/kg/day, 6 weeks",62%
COC(=O)C[C@H](NC(=O)[C@H](C)NC(=O)[C@@H](NC(=O)OCc1ccccc1)C(C)C)C(=O)CF [zVAD.fmk] (Cbz-Val-Ala-Asp(OMe)-CH2F),"cell death (LDH release), fold change relative to control","[4]; 100 μg/mL oxLDL + 25 μM zVAD.fmk, 24 h, mean±SEM",5.7±0.7 fold
same,effect on cell death in response to oxLDL (in words),"[4]; oxLDL + pan caspase inhibitor zVAD.fmk 25 μM, 24 h",significantly enhanced cell death
COC(=O)C[C@H](NC(=O)[C@H](C)NC(=O)[C@@H](NC(=O)[C@H](Cc1ccc(O)cc1)NC(=O)OCc1ccccc1)C(C)C)C(=O)CF [zYVAD.fmk],effect on cell death in response to oxLDL (in words),[4]; co-treatment with caspase-1 inhibitor zYVAD.fmk 20 uM,did not reduce or prevent cell death
